Measurements taken from US20120142731A1, “METHODS OF INHIBITING VIRAL INFECTION” (Functional Genetics, Inc., priority 2007, published 2012).

What was measured:
[1] = system: N5A of HCV; format: cell-based, Hepatitis C virus; conditions: 2.5 uM
[2] = 28 day course of administration; cited from earlier work
[3] = system: HBV; assay: Viral release assay, HBV from Huh1 cells; format: cell-based, Hepatitis B virus
[4] = in vitro; conditions: African green monkey
[5] = system: HBV; assay: HBV primary assay in HepG2 cells (virion DNA); format: cell-based, Hepatitis B virus; conditions: blinded NIAID study
[6] = system: HCV; format: cell-based, Hepatitis C virus
[7] = system: PRRS virus; assay: PRRS inhibition in primary porcine lung alveolar macrophages; format: cell-based, porcine reproductive and respiratory syndrome (PRRS) virus; conditions: administration 72 hours post infection
From the text: As noted above, important mammalian hosts treatable by this family of compounds include not only humans, but veterinarily and commercially important animals. Although monkeys, dogs, cats, mice, rats, horses, rabbits, cattle, sheep and goats are all important hosts to be treated for viral infection, pigs may be the dominant commercial animal, worldwide. The United States Department of Agriculture has characterized PRRS virus as a significant, worldwide, agricultural concern related to animal health and causes large economic losses to producers, and labeled a biosecurity threat. (Project 2008-2017).

[8] = system: HIV-1; assay: HIV-1 luciferase assay in infected MT-4 cells
[9] = system: HCV; assay: Viral release assay, HCV from Huh1 cells
[10] = system: cowpox; assay: organism not typed; format: cell-based; conditions: Vero
[11] = system: Venezuelan Equine Encephalomyelitis (VEE); format: cell-based; conditions: 25 uM, administered 3 days post-infection
[12] = Stability to light; format: physicochemical
From the text: R24 is subject to straight forward synthesis. […] The range of carriers available, is therefore, quite large. As a consequence, the compositions and methods of this invention embrace the FGI-104 compounds as neat solids, as pharmaceutically suitable preparations, in a pharmaceutically acceptable carrier of a variety of types. Compositions of the present invention may further comprise a pharmaceutical composition comprising a therapeutically effective amount of any of the small molecules (or combinations of small molecules) described above together with other materials, such as a suitable carrier, excipients, etc., for administration to a human or animal experiencing a viral infection or at risk of a viral infection. Such pharmaceutical compositions may be in solid, gel or liquid form and may be administered as appropriate to an individual IV, IM, IP or parenterally, topically, subcutaneously, orally, or through mucosal surfaces and routes (including, for example, rectal and vaginal suppositories). The exact dosage corresponding to a therapeutically effective amount will vary from mammal to mammal and virus to virus. […]

[13] = system: replicon formation; format: cell-based
[14] = mammalian models; oral, IP, IV administration; cited from earlier work
[15] = system: malaria; conditions: cited from earlier work

Row | Structure (SMILES) | signal protein N5A of HCV in protein blot [1] | chromosomal instability [2] | preventing viral release [3] | CC50 [4] [µM] | activity as measured by virion DNA [5] | inhibition of the virus (luciferase signal) [6] [%] | effectiveness as reflected by the EC90 value [7] | EC50 ([8]; Human immunodeficiency virus 1, MT4, 72 h) [µM] | luciferase detection ([8]; MT-4 cells, relatively low dose, 72 hours post infection) | preventing viral release [9] | EC50 [10] [µM] | inhibition of VEE [11] | stability to light [12] | inhibition of replicon formation [13] | tolerability [14] | efficacy against chloroquinoline-resistant malarial strains ([15]; chloroquinoline-resistant strains) | efficacy against the parasite based disease (malaria) ([15]; compared with chloroquinoline)
1 | CC(C)(C)NCc1cc(Nc2ccnc3cc(Cl)ccc23)cc(-c2ccc(Cl)cc2)c1O [Compound R24, 4′-chloro-5-[(7-chloro-4-quinolinyl)amino]-3-(1,1-dimethylethylamino)methyl [1,1′-biphenyl]-2-ol] | completely missing | not to induce significant chromosomal instability | effective in preventing viral release | > 25 | high level of activity | 100 | spectacular effectiveness | 8.5 | effective zero | effective in preventing viral release | 0.25 | dramatic inhibition | instability to light | does little to inhibit replicon formation | well tolerated | – | –
2 | CC(C)(C)NCc1cc(Nc2ccnc3cc(Cl)ccc23)cc(-c2ccc(Cl)cc2)c1O.Cl.Cl [WR-228,258 2HCl, 4′-chloro-5-[(7-chloro-4-quinolinyl)amino]-3-(1,1-dimethylethylamino)methyl[1,1′-biphenyl]-2-ol dihydrochloride] | – | – | – | – | – | – | – | – | – | – | – | – | – | – | well tolerated | not effective | effective against the parasite based disease at about the same level as the dominant treatment
